One block for each molecule: values may come before it. Active and inactive are the calls of the source. Cut-off read from the data, not from the text of the source, for most assays here: actives have a measured EC50 and inactives only a lower limit.
Columns and labels:
[1] = biological target: FAD-linked sulfhydryl oxidase ALR (Homo sapiens, UniProt P55789); assay: inhibitors of human ALR sulfhydryl oxidase, dose response, biochemical, H2O2 detection, luminescence, cherry-pick (AID 493248)
[2] = NIH-3T3 fibroblast cytotoxicity, dose response, cytotoxicity control, cell-based, fluorescence, Alamar Blue, secondary assay (AID 2327); type: functional;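 note: NIH-3T3 mouse fibroblasts cultured with fluconazole at 8 µg/mL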
[3] = C. albicans growth with fluconazole, confirmation, fluorescence, retest (AID 2467); type: functional, cell-based
[4] = biological target: T1, Corticotropin-releasing factor receptor 2/Corticotropin-releasing factor-binding protein (Homo sapiens, UniProt P24387+Q13324); assay: activators of CRF receptor 2 with binding protein – uHTS hits, confirmation (AID 602473); type: functional; details: read-out: EC50_Mean
T1 sequence (Q13324 whole entry): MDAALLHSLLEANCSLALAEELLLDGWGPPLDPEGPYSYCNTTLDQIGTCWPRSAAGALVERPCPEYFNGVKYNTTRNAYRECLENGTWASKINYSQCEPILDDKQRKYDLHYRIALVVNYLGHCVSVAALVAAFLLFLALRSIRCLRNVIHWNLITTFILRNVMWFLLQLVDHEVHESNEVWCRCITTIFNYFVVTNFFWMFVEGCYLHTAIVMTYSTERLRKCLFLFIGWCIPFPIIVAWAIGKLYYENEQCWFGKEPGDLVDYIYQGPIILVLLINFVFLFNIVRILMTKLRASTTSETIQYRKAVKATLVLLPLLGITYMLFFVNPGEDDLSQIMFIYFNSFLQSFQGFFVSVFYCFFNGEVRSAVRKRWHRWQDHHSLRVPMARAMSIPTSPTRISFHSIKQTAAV
T1 sequence (P24387 whole entry): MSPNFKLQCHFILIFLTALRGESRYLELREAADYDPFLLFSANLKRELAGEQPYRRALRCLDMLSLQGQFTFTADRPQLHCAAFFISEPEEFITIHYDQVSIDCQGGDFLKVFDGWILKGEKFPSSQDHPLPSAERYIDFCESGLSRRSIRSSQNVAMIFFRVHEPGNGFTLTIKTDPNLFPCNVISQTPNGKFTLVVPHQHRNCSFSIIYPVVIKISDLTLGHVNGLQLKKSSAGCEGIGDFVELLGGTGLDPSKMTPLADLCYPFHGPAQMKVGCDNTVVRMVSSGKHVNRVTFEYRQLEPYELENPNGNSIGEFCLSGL

[5] = biological target: T1, Corticotropin-releasing factor receptor 2/Corticotropin-releasing factor-binding protein; assay: Dose Response confirmation of uHTS hits for small molecule antagonists of the CRF-binding protein and CRF-R2 receptor complex.; type: functional; details: read-out: IC50_Mean
[6] = Luminescence Cell-Based Dose Confirmation HTS to Identify Inhibitors of Platelet Dense Granule Release. [Related pubchem assays: 1663 (Primary HTS), 1678 (Summary of Project)]; type: functional
[7] = biological target: Luciferin 4-monooxygenase (Photinus pyralis, UniProt P08659); assay: firefly luciferase enzyme inhibitors, dose response, biochemical, luminescence (AID 1891)
Chain of Luciferin 4-monooxygenase (P08659 whole entry): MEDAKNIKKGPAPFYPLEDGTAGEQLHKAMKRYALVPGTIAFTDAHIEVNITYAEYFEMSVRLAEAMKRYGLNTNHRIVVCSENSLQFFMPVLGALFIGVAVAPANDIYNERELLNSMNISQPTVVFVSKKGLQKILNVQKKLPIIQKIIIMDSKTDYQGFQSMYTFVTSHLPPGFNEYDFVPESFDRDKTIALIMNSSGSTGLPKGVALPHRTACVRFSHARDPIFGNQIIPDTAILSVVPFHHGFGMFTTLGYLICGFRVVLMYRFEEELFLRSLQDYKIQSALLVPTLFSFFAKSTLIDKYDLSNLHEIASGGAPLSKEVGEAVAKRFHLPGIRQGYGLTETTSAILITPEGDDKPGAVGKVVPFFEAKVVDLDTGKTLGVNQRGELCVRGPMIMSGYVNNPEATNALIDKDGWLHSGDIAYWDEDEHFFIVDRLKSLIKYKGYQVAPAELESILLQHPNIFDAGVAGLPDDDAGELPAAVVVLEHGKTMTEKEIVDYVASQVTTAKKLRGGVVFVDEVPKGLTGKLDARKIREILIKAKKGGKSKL

[8] = biological target: T2, Zinc finger protein mex-5 (Caenorhabditis elegans, UniProt Q9XUB2); assay: MEX-5/TCR-2 RNA interaction inhibitors, dose response, biochemical, C. elegans, fluorescence polarization (AID 1960)
T2 sequence (Q9XUB2 whole entry): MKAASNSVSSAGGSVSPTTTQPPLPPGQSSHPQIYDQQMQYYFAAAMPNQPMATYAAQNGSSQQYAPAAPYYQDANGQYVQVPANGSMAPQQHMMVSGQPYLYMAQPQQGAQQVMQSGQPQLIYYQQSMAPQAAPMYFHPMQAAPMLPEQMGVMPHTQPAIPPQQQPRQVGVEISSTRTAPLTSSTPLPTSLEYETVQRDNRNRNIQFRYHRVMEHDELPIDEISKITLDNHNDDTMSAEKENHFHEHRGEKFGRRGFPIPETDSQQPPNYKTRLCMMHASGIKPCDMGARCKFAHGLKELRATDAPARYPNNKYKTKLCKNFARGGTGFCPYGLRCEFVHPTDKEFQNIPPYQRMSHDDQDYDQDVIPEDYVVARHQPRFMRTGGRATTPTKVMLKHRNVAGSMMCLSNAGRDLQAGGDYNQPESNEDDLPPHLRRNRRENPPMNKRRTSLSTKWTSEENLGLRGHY

[9] = biological target: T3, RNA-binding protein pos-1 (Caenorhabditis elegans, UniProt G5EF15); assay: inhibitors of POS-1/mex-3 RNA binding, dose response, biochemical, fluorescence polarization (AID 1964);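 note: purified POS-1 fused to maltose binding protein made in E. coli; potency of compounds blocking POS-1 binding to fluorescent RNA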
T3 sequence (G5EF15 whole entry): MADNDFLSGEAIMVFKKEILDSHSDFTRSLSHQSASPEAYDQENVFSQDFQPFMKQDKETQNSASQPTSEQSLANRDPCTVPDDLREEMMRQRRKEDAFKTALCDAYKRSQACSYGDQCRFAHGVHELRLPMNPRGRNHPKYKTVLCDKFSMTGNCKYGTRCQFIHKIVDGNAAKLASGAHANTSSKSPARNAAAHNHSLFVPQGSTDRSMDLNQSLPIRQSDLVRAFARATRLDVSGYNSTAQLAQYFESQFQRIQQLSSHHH

[10] = cytotoxicity toward DRD oncogenic fibroblasts, dose response, cell-based, non-viral oncogenic, luminescence (AID 1934); type: functional; details: Homo sapiens
BJ [11] = assay: cytotoxicity toward BJ-TERT fibroblasts, dose response, cell-based, RAS-independent, luminescence (AID 1933); type: functional; details: Homo sapiens
BJ [12] = assay: cells; type: functional, cell-based; details: Homo sapiens
BJ [13] = assay: cytotoxicity toward BJ-TERT-LT-ST fibroblasts, dose response, cell-based, RAS-independent, luminescence (AID 1935); type: functional; details: Homo sapiens;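 note: BJ fibroblasts immortalized with TERT plus LT and ST oncogenes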
[14] = P. falciparum Dd2 growth inhibitors, dose response, SYBR Green, cherry-picked samples (AID 1159567); type: functional, cell-based

Chain of FAD-linked sulfhydryl oxidase ALR (P55789 whole entry): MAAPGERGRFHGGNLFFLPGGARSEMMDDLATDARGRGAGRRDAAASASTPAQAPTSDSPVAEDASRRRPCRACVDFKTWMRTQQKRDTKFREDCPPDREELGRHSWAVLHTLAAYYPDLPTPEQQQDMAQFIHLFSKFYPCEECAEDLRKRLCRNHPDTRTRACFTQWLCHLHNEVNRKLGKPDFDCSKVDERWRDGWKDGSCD

- AC50 [1]: 16.9 µM (active)
SMILES: O=C(NN=C1CCCC1)c1cc(-c2ccccc2)[nH]n1

SMILES: O=C(Cc1ccccc1)Nc1nonc1NC(=O)c1ccccc1
- EC50 [2]: > 150 µM (inactive)
- EC50 [3]: 3.18 µM (active)

- EC50 [4]: > 53 µM (inactive)
- IC50 [5]: > 47.1 µM (inactive)
SMILES: CC(OC(=O)c1ccc(-c2ccc(O)cc2)cc1)C(=O)NC1CCCCC1C (centres undefined)

SMILES: O=C(Nc1ccc(F)cc1)Nc1ccccc1F
- EC50 [6]: 12.1 µM (active)
- EC50 [7]: 6.85 µM (active)

SMILES: COC(=O)C1=C(C)N=C2SC(C#N)=C(N)N2C1c1cccc(OC)c1 (centres undefined)
- EC50 [6]: > 112 µM (not active)
- EC50 [8]: > 300 µM (not active)
- EC50 [9]: > 300 µM (not active)
- EC50 [7]: > 112 µM (not active)

- AC50 [1]: 5.27 µM (active)
SMILES: CC1(CCC(=O)N2CCCC(Nc3ccc(F)cc3)C2)CC1 (centres undefined)

- AC50 [1]: 9.91 µM (active)
SMILES: Cc1ccc(NC2CCCN(C(=O)c3cn4cccc(C)c4n3)C2)cc1C (centres undefined)

SMILES: COc1ccc(C(=O)Nc2ccccc2C(=O)N/N=C/c2ccccc2OC)cc1
- EC50 [6]: 1.11 µM (active)
- EC50 [7]: 0.286 µM (active)

SMILES: COc1ccc(C(=O)Nc2ccccc2C(=O)N/N=C/c2ccco2)cc1
- EC50 [6]: 4.14 µM (active)
- EC50 [7]: 0.329 µM (active)

SMILES: Cc1ccc(-n2nc(C)c(/C=N/c3ccc(S(=O)(=O)Nc4nccs4)cc3)c2O)cc1
- EC50 [10]: 24 µM (active)
- EC50 (BJ [11]): 12.8 µM (active)
- EC50 (BJ [12]): > 150 µM (not active)
- EC50 (BJ [13]): > 150 µM (not active)

SMILES: CC(C)(O)C#Cc1ccc([C@H]2[C@H](CO)N3CCCCN(C(=O)c4ccc(F)cc4)C[C@@H]23)cc1
- AC50 [14]: 15.3 µM (active)

SMILES: COc1cccc(CN2CC3(CN(Cc4ccccn4)C3)c3c([nH]c4cc(OC)ccc34)[C@H]2CO)c1
- AC50 [14]: 5.33 µM (active)

SMILES: CN(C)c1ccc2c(c1)[C@@H]1C[C@H](CC(=O)N3CCc4ccccc4C3)O[C@@H](CO)[C@@H]1O2
- AC50 [14]: 7.8 µM (active)

— ChEMBL document CHEMBL1201862, “PubChem BioAssay data set” (2004)
